Laboratory results reported in patent publication US12643867B2, “Compositions and uses thereof” (University of Virginia Patent Foundation, priority 2017, dated 2026).

What was measured:
Test in all cases: SILAC LC-MS ATP acyl phosphate probe competition, native kinases in HEK293T
Assay type in all cases: binding
[1] = molecular target: T1, CDK1 (Cell division control protein 2 homolog) (Homo sapiens, UniProt P06493); conditions: site Lys2; ATP 1 mM; Ketanserin, Ritanserin 100 μM; RF001 1 mM
T1 construct: measured against >50 native kinases quantified in HEK293T soluble proteomes; endogenous in cells; host or cells: HEK293T soluble proteome
T1 sequence (P06493 whole entry): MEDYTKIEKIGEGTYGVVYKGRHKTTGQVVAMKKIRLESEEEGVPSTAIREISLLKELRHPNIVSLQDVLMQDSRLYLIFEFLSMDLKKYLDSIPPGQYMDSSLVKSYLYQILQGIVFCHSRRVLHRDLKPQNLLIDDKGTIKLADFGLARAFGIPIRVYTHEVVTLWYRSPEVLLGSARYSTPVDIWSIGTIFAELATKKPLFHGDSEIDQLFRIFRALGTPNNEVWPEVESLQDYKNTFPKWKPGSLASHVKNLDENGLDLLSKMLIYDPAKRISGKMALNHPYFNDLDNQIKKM
In short: (§1)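 HEK293T SILAC proteomes, 2 mg/ml; heavy + compound (from 50× DMSO stock), light + DMSO, 30 min, 25° C. Mix 1:1, MeOH/CHCl3 extraction, DTT/iodoacetamide, trypsin/Lys-C 3 h 37° C. Avidin enrichment of desthiobiotin-modified peptides; Orbitrap Q Exactive Plus LC-MS, top-10 DDA.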

[2] = molecular target: T2, PAN3 (PAB-dependent poly(A)-specific ribonuclease subunit) (Homo sapiens, UniProt Q58A45); conditions: site ATP; ATP 1 mM; Ketanserin, Ritanserin 100 μM; RF001 1 mM
T2 construct: Native kinases; endogenous in cells; host or cells: HEK293T soluble proteome
T2 sequence (Q58A45 1-887): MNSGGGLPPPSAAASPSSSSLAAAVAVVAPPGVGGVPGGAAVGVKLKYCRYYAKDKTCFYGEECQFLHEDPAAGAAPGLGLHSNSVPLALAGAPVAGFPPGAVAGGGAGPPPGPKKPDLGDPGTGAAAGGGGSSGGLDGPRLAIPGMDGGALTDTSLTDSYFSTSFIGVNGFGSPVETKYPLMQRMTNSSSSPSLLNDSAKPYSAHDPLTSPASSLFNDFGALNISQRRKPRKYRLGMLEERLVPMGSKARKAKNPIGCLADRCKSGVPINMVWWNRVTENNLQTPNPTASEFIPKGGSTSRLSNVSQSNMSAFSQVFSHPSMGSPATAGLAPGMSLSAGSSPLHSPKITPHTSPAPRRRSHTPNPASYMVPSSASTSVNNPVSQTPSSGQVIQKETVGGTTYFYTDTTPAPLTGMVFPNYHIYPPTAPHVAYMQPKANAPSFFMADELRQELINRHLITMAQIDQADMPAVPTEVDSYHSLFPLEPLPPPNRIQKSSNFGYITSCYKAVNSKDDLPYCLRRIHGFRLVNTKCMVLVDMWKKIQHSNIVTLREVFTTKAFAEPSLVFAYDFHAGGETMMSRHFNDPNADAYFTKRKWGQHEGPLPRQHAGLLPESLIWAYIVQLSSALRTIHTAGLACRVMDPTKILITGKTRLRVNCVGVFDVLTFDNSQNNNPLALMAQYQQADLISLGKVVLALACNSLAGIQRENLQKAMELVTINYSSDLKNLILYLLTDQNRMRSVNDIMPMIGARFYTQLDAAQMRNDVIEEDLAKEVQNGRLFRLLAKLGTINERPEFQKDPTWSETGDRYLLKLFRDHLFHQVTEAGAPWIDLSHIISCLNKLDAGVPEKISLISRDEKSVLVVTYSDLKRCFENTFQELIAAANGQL
In short: as §1

[3] = molecular target: T3, SMG1 (Serine/threonine-protein kinase SMG1) (Homo sapiens, UniProt Q96Q15); conditions: site ATP; ATP 1 mM; Ketanserin, Ritanserin 100 μM; RF001 1 mM
T3 construct: Native kinases; endogenous in cells; host or cells: HEK293T soluble proteome
T3 sequence (Q96Q15 whole entry): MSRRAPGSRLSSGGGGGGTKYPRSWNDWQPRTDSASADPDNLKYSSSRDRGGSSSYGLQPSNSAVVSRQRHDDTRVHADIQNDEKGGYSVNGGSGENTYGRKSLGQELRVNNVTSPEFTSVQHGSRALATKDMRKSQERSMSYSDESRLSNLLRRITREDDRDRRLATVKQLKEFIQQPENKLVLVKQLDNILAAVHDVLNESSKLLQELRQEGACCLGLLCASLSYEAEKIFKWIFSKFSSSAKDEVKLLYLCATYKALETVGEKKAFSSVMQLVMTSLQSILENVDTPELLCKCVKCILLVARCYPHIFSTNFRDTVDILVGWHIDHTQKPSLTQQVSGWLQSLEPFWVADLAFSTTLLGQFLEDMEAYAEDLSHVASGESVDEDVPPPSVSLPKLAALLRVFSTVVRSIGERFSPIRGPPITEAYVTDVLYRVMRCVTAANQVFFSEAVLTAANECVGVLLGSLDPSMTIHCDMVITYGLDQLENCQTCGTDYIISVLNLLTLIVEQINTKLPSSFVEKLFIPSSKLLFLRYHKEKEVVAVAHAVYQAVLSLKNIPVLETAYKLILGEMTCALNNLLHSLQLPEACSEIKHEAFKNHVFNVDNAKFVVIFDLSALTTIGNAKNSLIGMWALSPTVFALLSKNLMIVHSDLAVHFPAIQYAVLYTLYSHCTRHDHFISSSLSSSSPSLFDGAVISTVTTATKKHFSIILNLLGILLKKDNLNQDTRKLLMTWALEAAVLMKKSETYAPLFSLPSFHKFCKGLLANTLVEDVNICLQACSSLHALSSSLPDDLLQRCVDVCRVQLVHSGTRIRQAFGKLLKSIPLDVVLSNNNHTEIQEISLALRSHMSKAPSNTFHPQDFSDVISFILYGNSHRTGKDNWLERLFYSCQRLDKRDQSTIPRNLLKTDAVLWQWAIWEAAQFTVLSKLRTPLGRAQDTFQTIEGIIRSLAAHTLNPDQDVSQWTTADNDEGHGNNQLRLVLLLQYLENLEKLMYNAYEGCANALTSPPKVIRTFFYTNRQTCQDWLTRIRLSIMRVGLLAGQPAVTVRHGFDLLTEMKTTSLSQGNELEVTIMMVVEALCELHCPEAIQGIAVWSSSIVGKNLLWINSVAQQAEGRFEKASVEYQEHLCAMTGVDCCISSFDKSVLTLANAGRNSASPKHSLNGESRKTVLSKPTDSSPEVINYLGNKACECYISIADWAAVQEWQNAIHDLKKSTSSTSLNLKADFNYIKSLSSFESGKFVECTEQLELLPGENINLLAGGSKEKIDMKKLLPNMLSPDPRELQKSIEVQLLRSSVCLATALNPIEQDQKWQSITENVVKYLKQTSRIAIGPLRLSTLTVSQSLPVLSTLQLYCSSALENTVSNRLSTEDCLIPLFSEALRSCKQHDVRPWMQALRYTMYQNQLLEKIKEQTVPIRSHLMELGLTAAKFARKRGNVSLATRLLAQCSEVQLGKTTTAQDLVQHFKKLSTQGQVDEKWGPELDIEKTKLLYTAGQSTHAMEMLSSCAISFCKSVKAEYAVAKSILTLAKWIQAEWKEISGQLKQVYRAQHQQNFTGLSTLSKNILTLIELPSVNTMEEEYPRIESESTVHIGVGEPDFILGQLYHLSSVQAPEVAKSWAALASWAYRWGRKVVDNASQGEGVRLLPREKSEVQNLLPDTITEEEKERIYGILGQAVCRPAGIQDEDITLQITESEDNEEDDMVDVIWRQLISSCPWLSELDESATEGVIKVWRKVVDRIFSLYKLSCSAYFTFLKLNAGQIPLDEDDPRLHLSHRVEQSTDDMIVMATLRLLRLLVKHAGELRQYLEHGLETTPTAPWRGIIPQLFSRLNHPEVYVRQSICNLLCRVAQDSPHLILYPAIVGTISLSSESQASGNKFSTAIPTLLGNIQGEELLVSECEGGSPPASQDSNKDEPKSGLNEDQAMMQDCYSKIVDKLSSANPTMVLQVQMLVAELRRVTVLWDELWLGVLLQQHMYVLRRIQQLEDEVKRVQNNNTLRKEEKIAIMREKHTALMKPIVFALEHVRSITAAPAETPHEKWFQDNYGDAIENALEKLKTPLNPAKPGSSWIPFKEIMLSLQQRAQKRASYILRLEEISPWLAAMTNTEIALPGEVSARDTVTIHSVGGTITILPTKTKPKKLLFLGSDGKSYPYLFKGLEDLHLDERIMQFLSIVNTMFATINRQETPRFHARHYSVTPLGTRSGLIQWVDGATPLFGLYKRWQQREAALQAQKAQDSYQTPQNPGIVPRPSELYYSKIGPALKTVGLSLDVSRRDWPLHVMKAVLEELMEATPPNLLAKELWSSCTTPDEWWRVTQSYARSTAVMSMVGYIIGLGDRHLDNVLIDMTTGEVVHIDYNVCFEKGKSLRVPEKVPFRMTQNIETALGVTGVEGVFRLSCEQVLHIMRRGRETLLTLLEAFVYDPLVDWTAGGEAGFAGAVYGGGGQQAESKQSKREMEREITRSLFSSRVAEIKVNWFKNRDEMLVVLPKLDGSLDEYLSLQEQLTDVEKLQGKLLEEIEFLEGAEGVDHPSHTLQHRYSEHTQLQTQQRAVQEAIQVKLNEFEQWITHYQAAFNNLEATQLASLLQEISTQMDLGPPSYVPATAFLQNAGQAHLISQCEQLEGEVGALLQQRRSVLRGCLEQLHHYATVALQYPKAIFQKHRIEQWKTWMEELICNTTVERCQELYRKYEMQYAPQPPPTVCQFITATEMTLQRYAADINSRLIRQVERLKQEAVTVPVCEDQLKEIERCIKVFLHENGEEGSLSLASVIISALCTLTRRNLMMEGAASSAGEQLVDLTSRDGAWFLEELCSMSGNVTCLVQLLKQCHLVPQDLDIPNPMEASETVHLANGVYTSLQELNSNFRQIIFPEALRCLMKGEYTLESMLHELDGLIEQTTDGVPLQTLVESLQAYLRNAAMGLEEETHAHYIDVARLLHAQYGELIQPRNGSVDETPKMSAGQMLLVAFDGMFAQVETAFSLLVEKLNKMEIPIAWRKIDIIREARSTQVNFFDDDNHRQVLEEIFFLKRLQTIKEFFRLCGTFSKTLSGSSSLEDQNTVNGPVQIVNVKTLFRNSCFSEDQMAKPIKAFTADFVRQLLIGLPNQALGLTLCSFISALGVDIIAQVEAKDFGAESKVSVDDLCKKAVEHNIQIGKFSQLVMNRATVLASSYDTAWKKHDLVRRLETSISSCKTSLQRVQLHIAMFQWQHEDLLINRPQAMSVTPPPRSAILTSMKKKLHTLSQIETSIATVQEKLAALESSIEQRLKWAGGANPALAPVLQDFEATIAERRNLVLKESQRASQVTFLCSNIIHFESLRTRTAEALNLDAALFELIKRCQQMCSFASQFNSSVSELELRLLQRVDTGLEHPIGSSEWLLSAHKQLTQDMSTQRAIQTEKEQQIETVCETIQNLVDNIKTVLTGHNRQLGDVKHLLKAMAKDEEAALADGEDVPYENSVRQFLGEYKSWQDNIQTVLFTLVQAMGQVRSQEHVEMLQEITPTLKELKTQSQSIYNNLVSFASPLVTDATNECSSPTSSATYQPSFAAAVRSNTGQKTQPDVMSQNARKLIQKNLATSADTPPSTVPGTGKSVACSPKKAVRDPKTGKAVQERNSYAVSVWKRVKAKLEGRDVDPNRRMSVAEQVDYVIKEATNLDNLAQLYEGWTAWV
In short: as §1

SILAC ratio, CDK1 probe-modified peptide [1]	SILAC ratio, PAN3 probe-modified peptide [2]	SILAC ratio, SMG1 probe-modified peptide [3]	Compound
1.4	1.3	1.3	O=C(c1ccc(F)cc1)C1CCN(CCn2c(=O)[nH]c3ccccc3c2=O)CC1 [Ketanserin]
1.1	1.3	1.0	Fc1ccc(C(=C2CCNCC2)c2ccc(F)cc2)cc1 [RF001, 4-(Bis(4-fluorophenyl)methylene) piperidine]

Compound	SILAC ratio, CDK1 probe-modified peptide [1]	SILAC ratio, PAN3 probe-modified peptide [2]	SILAC ratio, SMG1 probe-modified peptide [3]
Cc1nc2sccn2c(=O)c1CCN1CCC(=C(c2ccc(F)cc2)c2ccc(F)cc2)CC1 [Ritanserin]	2.4	1.8	1.7
